Broadly, the Ki is a measure of affinity in units of concentration, obtained from inhibition or displacement.

19 molecules from US11014911B2, “CDK2 inhibitors” (Pfizer Inc., priority 2019, dated 2021) can be followed below.

This assay has as its target CDK2/Cyclin E1 full length (Homo sapiens (Human), UniProt P24941). Description: CDK2/Cyclin E1 full length mobility shift assay. It counts as biochemical.

As to `CCC(CO)CNC(=O)O[C@@H]1CC[C@H](c2cc(NC(=O)Cc3cnc(C)o3)n[nH]2)C1` (single isomer, unassigned) [Example 527], the Ki is 2.63 nM.

Regarding `CCC(CO)CNC(=O)O[C@@H]1CC[C@H](c2cc(NC(=O)Cc3ccc(OC)cc3)n[nH]2)C1` (single isomer, unassigned) [Example 530], the Ki is 2.03 nM.

In the case of `CCC(CO)CNC(=O)O[C@@H]1CC[C@H](c2cc(NC(=O)Cc3ccc(OC)cc3)n[nH]2)C1` (single isomer, unassigned) [Example 531], the Ki is 1.51 nM.

For `CCC(CO)CNC(=O)O[C@@H]1CC[C@H](c2cc(NC(=O)Cc3cc(F)cc(F)c3)n[nH]2)C1` (single isomer, unassigned) [Example 536], the Ki is 2.07 nM.

For the molecule `CC(CO)CNC(=O)O[C@@H]1CC[C@H](c2cc(NC(=O)Cc3cc(F)cc(F)c3)n[nH]2)C1` (single isomer, unassigned) [Example 538], the Ki is 2.72 nM.

Take `CC(CO)CNC(=O)O[C@@H]1CC[C@H](c2cc(NC(=O)Cc3cc(F)cc(F)c3)n[nH]2)C1` (single isomer, unassigned) [Example 539]: the inhibition constant (Ki) was determined as 2.35 nM.

For the molecule `CCC(O)CNC(=O)O[C@@H]1CC[C@H](c2cc(NC(=O)Cc3ccc(OC)cc3)n[nH]2)C1` (single isomer, unassigned) [Example 540], the Ki was 2.65 nM.

Regarding `CCC(O)CNC(=O)O[C@@H]1CC[C@H](c2cc(NC(=O)Cc3ccc(OC)cc3)n[nH]2)C1` (single isomer, unassigned) [Example 541], the Ki came out at 1.85 nM.

On to `CCC(O)CNC(=O)O[C@@H]1CC[C@H](c2cc(NC(=O)Cc3cc(F)cc(F)c3)n[nH]2)C1` (single isomer, unassigned) [Example 542], for which the inhibitory constant (Ki) was determined as 2.41 nM.

On to `CCC(O)CNC(=O)O[C@@H]1CC[C@H](c2cc(NC(=O)Cc3cc(F)cc(F)c3)n[nH]2)C1` (single isomer, unassigned) [Example 543], for which the Ki came out at 1.96 nM.

In the case of `CN1CC(CNC(=O)O[C@H]2CC[C@@H](c3cc(NC(=O)Cc4cc(F)cc(F)c4)n[nH]3)C2)OCC1=O` (single isomer, unassigned) [Example 583], the Ki was 2.71 nM.

Consider `CN1CC(CNC(=O)O[C@H]2CC[C@@H](c3cc(NC(=O)Cc4cc(F)cc(F)c4)n[nH]3)C2)OCC1=O` (single isomer, unassigned) [Example 584], for which the Ki was determined as 3.84 nM.

As to `Cc1cc(CC(=O)Nc2cc([C@H]3CC[C@@H](OC(=O)N4CCC4C)C3)[nH]n2)on1` (single isomer, unassigned) [Example 590], the Ki came to 2.86 nM.

In the case of `CCC1CCN1C(=O)O[C@@H]1CC[C@H](c2cc(NC(=O)Cc3ncc(C)o3)n[nH]2)C1` (single isomer, unassigned) [Example 599], the inhibition constant (Ki) was found to be 1.38 nM.

As to `CCC1CCN1C(=O)O[C@@H]1CC[C@H](c2cc(NC(=O)Cc3ncc(C)o3)n[nH]2)C1` (single isomer, unassigned) [Example 600], the Ki stood at 2.12 nM.

Take `Cc1ncc(CC(=O)Nc2cc([C@H]3CC[C@@H](OC(=O)NC(C)C)C3)[nH]n2)s1` [Example 2, (1R,3S)-3-(3-{[(2-methyl-1,3-thiazol-5-yl)acetyl]amino}-1H-pyrazol-5-yl)cyclopentyl propan-2-ylcarbamate]: the Ki stood at 0.31 nM.

On to `Cc1cc(CC(=O)Nc2cc([C@H]3CC[C@@H](OC(=O)NC4(C)CC4)C3)[nH]n2)no1` [Example 7, (1R,3S)-3-(3-{[(5-methyl-1,2-oxazol-3-yl)acetyl]amino}-1H-pyrazol-5-yl)cyclopentyl (1-methylcyclopropyl)carbamate], for which the Ki turned out to be 0.61 nM.

With `Cc1nnc(CC(=O)Nc2cc([C@H]3CC[C@@H](OC(=O)NC4(C)CCC4)C3)[nH]n2)s1` [Example 18, (1R,3S)-3-(3-{[(5-methyl-1,3,4-thiadiazol-2-yl)acetyl]amino}-1H-pyrazol-5-yl)cyclopentyl (1-methylcyclobutyl)carbamate], the Ki was 0.17 nM.

Turning to `Cc1ncc(CC(=O)Nc2cc([C@@H]3CC[C@H](OC(=O)NC(C)C)C3)[nH]n2)s1` [Example 26], the inhibition constant (Ki) was 0.21 nM.
